Data: patent publication US6380226B1, “Salts of an anti-migraine indole derivatives” (Pfizer Inc, priority 1994, dated 2002)
Entries after “also recorded” stand apart in the source; their conditions may differ. Counter-ions that a name gives are not always drawn. Like-named read-outs stand apart in the source and are kept apart here. Each block holds one compound with its values, some of them ahead of it.

Key:
Assay type in all cases: physicochemical
[1] = Hygroscopicity study: moisture change by weight analysis and Karl Fischer titrimetry; conditions: for colour change of sample accompanying water uptake: hygroscopicity study, 40° C./75% RH
Procedure: (§1) Hygroscopicity/Solid State Stability Studies Samples (ca 10 mg) were sieved (250 μm) and then stored at each of the following conditions of temperature (T) and relative humidity (RH) for up to 4 weeks: 30° C. at II, 75 and 90% RH and 40° C. at II, 75 and 90% RH, the required humidities being achieved using the appropriate saturated salt solution in a dessicator. Measurements of water content changes were conducted by weight analysis using a microbalance and by Karl Fischer titrimetry (KFT), and chemical and physical stability evaluation by high performance liquid chromatography (HPLC) and DSC. KFT was performed using a Mitsubishi moisturemeter and ca 10 mg of each sample.

[2] = Solid state stability study: chemical and physical stability by HPLC and DSC; conditions: for solid state instability (associated with water uptake): hygroscopicity studies
Procedure: as §1, with “DSC. HPLC analyses were” for “DSC. KFT was”, “performed on” for “performed using”, “a LDC isocratic system under the following conditions: column—Novapak C18, 5μm, 15 cm; mobile phase—pH 6.0, 60:40 v/v 0.02M KH2PO4 (0.5% triethylamine): methanol; detection—UV (254 nm); flow rate—1.0 ml/min; injection volume —20 μl; sample 0.1 mg/ml in mobile phase.” for “a Mitsubishi moisturemeter and ca 10 mg of each sample.”

[3] = Compression studies; conditions: for behaviour on compression (colour change, melting, punch filming): 5 tonnes for 1 minute, 13 mm punch and die set
Procedure: Samples (200 mg) were compressed using a bench IR press (Graseby Specac Model 15.011) at 5 tonnes for 1 minute using a 13 mm punch and die set, then assessed for colour change and evidence of melting. Further analysis (DSC and HPLC) was conducted after grinding of the compact using a mortar and pestle.

[4] = Polymorphic conversion by DSC
Procedure: Samples (ca 5 mg) of each form were analysed using a Perkin-Elmer 7 Series thermal analyser at a scanning rate of 20° C. per minute. For identification of the respective endotherms, shown in the representative DSC thermograms of FIGS. 3A and 3B, vide supra. DSC was used to determine both the polymorphic conversions of the β-forms of the hydrobromide and hemisulphate salts to their respective α-forms, and also the conversion of the α-form of the hydrochloride salt to its β-form which is believed to be an anhydrate-hydrate transition.

[5] = listed as α-form of the hemisulphate salt
[6] = listed as β-form of the hemisulphate salt
[7] = listed as α-form of the hydrobromide salt

moisture change determined by % weight change ([1]; T/RH 40/75, Week 1): +6.0%
moisture change determined by % weight change ([1]; T/RH 40/75, Week 2): +4.85%
moisture change determined by % weight change ([1]; T/RH 40/75, Week 3): +5.46%
moisture change determined by % weight change ([1]; T/RH 40/75, Week 4): +4.04%
colour change of sample accompanying water uptake [1, 5]: no concomitant colour
hygroscopicity (in words) [1, 5]: extremely hygroscopic
solid state instability (associated with water uptake) [2, 5]: does not display solid state instability
Structure (SMILES): CN1CCC[C@@H]1Cc1c[nH]c2ccc(CCS(=O)(=O)c3ccccc3)cc12 [α-½H2SO4, 3-(N-methyl-2(R)-pyrrolidinylmethyl)-5-(2-phenylsulphonylethyl)-1H-indole]

behaviour on compression (colour change, melting, punch filming) [3]: did not melt on compaction
Structure (SMILES): CN1CCC[C@@H]1Cc1c[nH]c2ccc(CCS(=O)(=O)c3ccccc3)cc12 [α-form of the hydrochloride salt, 3-(N-methyl-2(R)-pyrrolidinylmethyl)-5-(2-phenylsulphonylethyl)-1H-indole]
polymorphic conversion [4]: converts to the hydrated β-form; also recorded: transformation of the α-form to the β-form
water uptake (in words) ([1]; T 40° C., RH 75%, seven days (1 week)): a significant amount of water had been taken up; also recorded: picked up a significant amount of moisture

moisture change determined by % weight change ([1]; T/RH 40/75, Week 1): +1.33%
moisture change determined by % weight change ([1]; T/RH 40/75, Week 2): +3.79%
moisture change determined by % weight change ([1]; T/RH 40/75, Week 3): +3.38%
moisture change determined by % weight change ([1]; T/RH 40/75, Week 4): +1.69%
hygroscopicity (in words) ([1]; relative humidities (RH) higher than 50%): very hygroscopic
Structure (SMILES): CN1CCC[C@@H]1Cc1c[nH]c2ccc(CCS(=O)(=O)c3ccccc3)cc12 [β-½H2SO4, 3-(N-methyl-2(R)-pyrrolidinylmethyl)-5-(2-phenylsulphonylethyl)-1H-indole]
behaviour on compression (colour change, melting, punch filming) [3, 6]: undergoes a colour change on compression and causes punch-filming during tabletting; also recorded: undergoes a colour change on compression and also causes punch filming on compaction
polymorphic conversion [4, 6]: water uptake can cause polymorphic conversion to an alternative form; also recorded: polymorphic conversion to the α-form
colour change of sample accompanying water uptake [1, 6]: change in colour of the sample from cream to yellow

Further lines, the compound ahead of its results:

Structure (SMILES): CN1CCC[C@@H]1Cc1c[nH]c2ccc(CCS(=O)(=O)c3ccccc3)cc12 [β-form of the hydrobromide salt]
polymorphic conversion [4]: undergoes polymorphic conversion to a higher melting form

Structure (SMILES): CN1CCC[C@@H]1Cc1c[nH]c2ccc(CCS(=O)(=O)c3ccccc3)cc12 [α-HBr, 3-(N-Methyl-2(R)-pyrrolidinylmethyl)-5-(2-phenylsulphonylethly)-1H-indole hydrobromide, α-form]
behaviour on compression (colour change, melting, punch filming) [3, 7]: no evidence of a change in sample appearance or punch filming
changes to the thermogram (melting point, enthalpy of fusion) after compression or grinding ([3]; DSC after compression or grinding): no changes
polymorphic conversion [4, 7]: No polymorphic transitions
weight over the course of the hygroscopicity study (in words) ([1]; 30 and 40° C., 11, 75 and 90% RH, up to 4 weeks): relatively stable weights
moisture change determined by % weight change ([1]; T/RH 30/11 (30° C., 11% RH), Week 1): −0.45%
moisture change determined by % weight change ([1]; T/RH 30/11, Week 2): −0.51%
moisture change determined by % weight change ([1]; T/RH 30/11, Week 3): +0.20%
moisture change determined by % weight change ([1]; T/RH 30/11, Week 4): +0.09%
moisture change determined by % weight change ([1]; T/RH 30/75, Week 1): +0.08%
moisture change determined by % weight change ([1]; T/RH 30/75, Week 2): +0.01%
moisture change determined by % weight change ([1]; T/RH 30/75, Week 3): +0.17%
moisture change determined by % weight change ([1]; T/RH 30/75, Week 4): +0.25%
moisture change determined by % weight change ([1]; T/RH 30/90, Week 1): +0.53%
moisture change determined by % weight change ([1]; T/RH 30/90, Week 2): +0.46%
moisture change determined by % weight change ([1]; T/RH 30/90, Week 3): +0.50%
moisture change determined by % weight change ([1]; T/RH 30/90, Week 4): +0.49%
moisture change determined by % weight change ([1]; T/RH 40/11, Week 1): −0.48%
moisture change determined by % weight change ([1]; T/RH 40/11, Week 2): +0.58%
moisture change determined by % weight change ([1]; T/RH 40/11, Week 3): −0.51%
moisture change determined by % weight change ([1]; T/RH 40/11, Week 4): −0.49%
moisture change determined by % weight change ([1]; T/RH 40/75, Week 1): +0.06%
moisture change determined by % weight change ([1]; T/RH 40/75, Week 2): +0.23%
moisture change determined by % weight change ([1]; T/RH 40/75, Week 3): 0.00%
moisture change determined by % weight change ([1]; T/RH 40/75, Week 4): +0.11%
moisture change determined by % weight change ([1]; T/RH 40/90, Week 1): +0.87%
moisture change determined by % weight change ([1]; T/RH 40/90, Week 2): +1.27%
moisture change determined by % weight change ([1]; T/RH 40/90, Week 3): +1.16%
moisture change determined by % weight change ([1]; T/RH 40/90, Week 4): +1.23%
hygroscopicity (in words) [1, 7]: lack of hygroscopicity
change in DSC profile ([2]; T=40° C./RH=90% samples): No change
chemical stability by HPLC analysis ([2]; all of the conditions studied (30 and 40° C., 11, 75, 90% RH, up to 4 weeks)): confirmed its stability

Structure (SMILES): CN1CCC[C@@H]1Cc1c[nH]c2ccc(CCS(=O)(=O)c3ccccc3)cc12 [β-form of the hydrochloride salt, 3-(N-methyl-2(R)-pyrrolidinylmethyl)-5-(2-phenylsulphonylethyl)-1H-indole]
behaviour on compression (colour change, melting, punch filming) [3]: melting and sticking of the disk to the punches were observed; also recorded: melts and causes sticking of the disk to the punches
hygroscopicity (in words) ([1]; T=40° C./RH=75%, weight change and KFT at week 4): non-hygroscopic
solid state instability (associated with water uptake) [2]: does not display solid state instability; also recorded: no solid state instability being detected
